Results from patent US12673975B2, “Cyclic peptide, cell scaffold material, cell separating material, and medium” (FUJIFILM Corporation, priority 2019, dated 2026).
pKd: −log10 of the molar value. Like-named read-outs stand apart in the source and are kept apart here. Starred links: 1 amine or outer side, 2 acyl side, 3 side chain; linkers in the order of their positions; H or OH if unused. Positions of bridges follow the written chain, without caps; N, C: chain ends. Non-standard residues stand in square brackets, D forms with d. Residues, ends and D or L forms follow the SMILES beside them. hCys = N[C@@H](CCS)C(=O)O; Dab = NCC[C@H](N)C(=O)O; X1 = O=C(C[*:2])[*:1]; X2 = O=C(C[*:1])[*:2]

How the values were obtained:
[1] = Evaluation of molecule stability (alkali treatment, residual rate by LC/MS); assay type: physicochemical; details: for Performance evaluation: Stability (residual rate of cyclic peptide after alkali treatment): 500 μM peptide aqueous solution plus equivalent of 1 M sodium hydroxide, 15° C., 3 hours, LC/MS peak area; for Stability (molecule stability, residual rate of the cyclic peptide rank): alkali treatment, residual rate by LC/MS
Procedure, shortened: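 Stability read as percent of summed LC/MS peak area remaining versus untreated peptide (C18, 45 °C, 10 mM ammonium formate pH 3, ESI positive/negative). Treatment: 500 μM peptide in water plus an equivalent of 1 M NaOH, 15 °C for 3 hours.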

human integrin αvβ5 = human integrin αvβ5 (Homo sapiens, UniProt P06756+P18084); test: Evaluation of integrin binding property (surface plasmon resonance, Biacore 3000, immobilized cyclic peptide)
human integrin αvβ5, sequence (P06756 31-1048): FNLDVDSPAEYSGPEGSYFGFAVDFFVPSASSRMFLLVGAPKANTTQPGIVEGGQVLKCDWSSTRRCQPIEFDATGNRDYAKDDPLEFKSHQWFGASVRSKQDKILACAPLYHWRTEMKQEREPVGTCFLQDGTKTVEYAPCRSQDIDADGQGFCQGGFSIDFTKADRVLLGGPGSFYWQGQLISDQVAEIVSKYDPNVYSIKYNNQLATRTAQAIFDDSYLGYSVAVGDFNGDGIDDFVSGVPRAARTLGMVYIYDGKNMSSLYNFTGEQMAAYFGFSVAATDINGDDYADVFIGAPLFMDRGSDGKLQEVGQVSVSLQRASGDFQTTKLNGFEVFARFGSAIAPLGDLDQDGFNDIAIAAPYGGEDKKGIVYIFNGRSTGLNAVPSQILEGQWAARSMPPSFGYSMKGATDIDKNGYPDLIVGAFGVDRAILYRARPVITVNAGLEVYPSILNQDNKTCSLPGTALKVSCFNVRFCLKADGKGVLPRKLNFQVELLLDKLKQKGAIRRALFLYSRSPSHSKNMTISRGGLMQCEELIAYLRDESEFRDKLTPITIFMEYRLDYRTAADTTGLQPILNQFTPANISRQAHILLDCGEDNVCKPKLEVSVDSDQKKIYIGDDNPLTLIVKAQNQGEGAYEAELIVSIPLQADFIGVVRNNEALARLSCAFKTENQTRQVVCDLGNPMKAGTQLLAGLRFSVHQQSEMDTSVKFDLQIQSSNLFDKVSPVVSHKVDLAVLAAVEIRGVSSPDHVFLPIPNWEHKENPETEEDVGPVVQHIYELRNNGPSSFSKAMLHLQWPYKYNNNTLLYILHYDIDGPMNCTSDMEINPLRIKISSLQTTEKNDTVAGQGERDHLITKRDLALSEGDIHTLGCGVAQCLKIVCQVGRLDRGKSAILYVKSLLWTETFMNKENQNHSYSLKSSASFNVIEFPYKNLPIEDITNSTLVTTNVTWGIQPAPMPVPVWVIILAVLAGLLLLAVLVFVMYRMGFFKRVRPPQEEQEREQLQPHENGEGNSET
human integrin αvβ5, sequence (P18084 24-799): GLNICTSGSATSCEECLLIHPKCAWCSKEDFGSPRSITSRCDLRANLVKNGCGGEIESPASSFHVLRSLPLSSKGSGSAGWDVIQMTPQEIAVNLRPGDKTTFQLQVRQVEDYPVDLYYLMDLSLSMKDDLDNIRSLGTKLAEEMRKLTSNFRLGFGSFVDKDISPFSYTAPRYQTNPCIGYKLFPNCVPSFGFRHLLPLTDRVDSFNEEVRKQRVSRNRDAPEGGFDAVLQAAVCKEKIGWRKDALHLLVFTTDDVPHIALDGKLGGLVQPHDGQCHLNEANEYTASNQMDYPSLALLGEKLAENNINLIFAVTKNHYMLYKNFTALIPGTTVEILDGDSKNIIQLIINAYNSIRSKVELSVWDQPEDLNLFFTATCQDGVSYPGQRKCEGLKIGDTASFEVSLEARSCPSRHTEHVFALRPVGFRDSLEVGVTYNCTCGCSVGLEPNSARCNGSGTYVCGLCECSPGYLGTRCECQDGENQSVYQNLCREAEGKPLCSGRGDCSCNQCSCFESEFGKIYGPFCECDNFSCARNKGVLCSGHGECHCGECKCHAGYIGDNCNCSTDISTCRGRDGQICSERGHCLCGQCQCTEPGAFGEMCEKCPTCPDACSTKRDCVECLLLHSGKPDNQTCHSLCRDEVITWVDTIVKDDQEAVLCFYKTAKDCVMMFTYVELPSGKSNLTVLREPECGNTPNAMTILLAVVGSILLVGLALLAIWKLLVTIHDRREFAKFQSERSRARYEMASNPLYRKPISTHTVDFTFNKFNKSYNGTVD
Procedure, shortened: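 Human αvβ5 (30-1,000 nM) flowed for 10 min at 25 °C over immobilized cyclic peptide in 20 mM HEPES, 150 mM NaCl, 5 mM MgCl2, pH 7.4, followed by 30 min running buffer and 0.5 M EDTA regeneration. Dissociation constant from peptide minus unimmobilized channel, scored into standard grades.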

[2] = SPR, 25° C., HEPES buffer with 5 mM magnesium chloride, integrin 30-1,000 nM, read-out: Performance evaluation: Binding activity (dissociation constant between the cyclic peptide and human integrin αvβ5)
[3] = surface plasmon resonance, immobilized cyclic peptide, human integrin αvβ5, read-out: Binding activity (integrin binding property, dissociation constant rank)

Compound	pKd (human integrin αvβ5; [2])	pKd (human integrin αvβ5; [3])	Performance evaluation: Stability (residual rate of cyclic peptide after alkali treatment) [1]	Stability (molecule stability, residual rate of the cyclic peptide rank) [1]
CC[C@H](C)[C@@H]1NC(=O)[C@@H](NC(=O)[C@H](C)NC(=O)[C@H](CCCCN)NC(=O)[C@H](CCCCN)NC(=O)[C@@H](N)CCCCN)CCSCC(=O)NCC[C@@H](C(=O)N[C@@H](C)C(=O)O)NC(=O)[C@H](CCCNC(=N)N)NC(=O)[C@@H]2CCCN2C(=O)[C@H]([C@@H](C)O)NC(=O)[C@H](CC(=O)O)NC(=O)CNC(=O)[C@H](CCCNC(=N)N)NC(=O)[C@@H]2CCCN2C1=O [Cyclic peptide 80, KKKA-(Hcy)-IPRGDTPR(Dab(acetyl))A] (H-KKKA[hCys]IPRGDTPR[Dab]A-OH; linker 5-14 via X2)	7.00 to 7.30	–	A (The residual rate of the cyclic peptide is 70% or more.)	–
CC[C@H](C)[C@@H]1NC(=O)[C@@H](NC(=O)CNC(=O)[C@H](CCCCN)NC(=O)[C@H](CCCCN)NC(=O)[C@@H](N)CCCCN)CCSCC(=O)NCC[C@@H](C(=O)O)NC(=O)[C@H](CCCNC(=N)N)NC(=O)[C@H](Cc2ccccc2)NC(=O)[C@H](CC(N)=O)NC(=O)[C@H](CC(=O)O)NC(=O)CNC(=O)[C@H](CCCNC(=N)N)NC(=O)[C@@H]2CCCN2C1=O [Cyclic peptide 7, KKKG-(Hcy)-IPRGDNFR(Dab(acetyl))] (H-KKKG[hCys]IPRGDNFR[Dab]-OH; linker 5-14 via X2)	> 7.30	–	A (The residual rate of the cyclic peptide is 70% or more.)	–
CC[C@H](C)[C@@H]1NC(=O)[C@@H](NC(=O)CNC(=O)[C@H](CCCCN)NC(=O)[C@H](CCCCN)NC(=O)[C@@H](N)CCCCN)CCSCC(=O)NCC[C@@H](C(=O)NCC(=O)O)NC(=O)[C@H](C)NC(=O)[C@H](Cc2ccccc2)NC(=O)[C@H]([C@@H](C)O)NC(=O)[C@H](CC(=O)O)NC(=O)CNC(=O)[C@H](CCCNC(=N)N)NC(=O)[C@@H]2CCCN2C1=O [Cyclic peptide 84, KKKG-(Hcy)-IPRGDTFA(Dab(acetyl))G] (H-KKKG[hCys]IPRGDTFA[Dab]G-OH; linker 5-14 via X2)	> 7.30	–	A (The residual rate of the cyclic peptide is 70% or more.)	–
C[C@H](NC(=O)[C@H](CCCCN)NC(=O)[C@H](CCCCN)NC(=O)[C@@H](N)CCCCN)C(=O)N[C@H]1CCSCC(=O)NCC[C@@H](C(=O)N[C@@H](CC(=O)O)C(=O)O)NC(=O)[C@H](CCCNC(=N)N)NC(=O)[C@H](Cc2ccc(O)cc2)NC(=O)[C@H](CC(N)=O)NC(=O)[C@H](CC(=O)O)NC(=O)CNC(=O)[C@H](CCCNC(=N)N)NC(=O)[C@@H]2CCCN2C(=O)[C@H](Cc2ccc(O)cc2)NC1=O [Cyclic peptide 32, KKKA-(Hcy)-YPRGDNYR(Dab(acetyl))D] (H-KKKA[hCys]YPRGDNYR[Dab]D-OH; linker 5-14 via X2)	> 7.30	–	A (The residual rate of the cyclic peptide is 70% or more.)	–
CC[C@H](C)[C@@H]1NC(=O)[C@@H](NC(=O)[C@H](CCCCN)NC(=O)[C@H](CCCCN)NC(=O)[C@@H](N)CCCCN)CCSCC(=O)NCC[C@@H](C(=O)N[C@@H](CC(=O)O)C(=O)O)NC(=O)[C@H](CCCNC(=N)N)NC(=O)[C@H](Cc2ccccc2)NC(=O)[C@H](CC(N)=O)NC(=O)[C@H](CC(=O)O)NC(=O)CNC(=O)[C@H](CCCNC(=N)N)NC(=O)[C@@H]2CCCN2C1=O [Cyclic peptide 5, KKK-(Hcy)-IPRGDNFR(Dab(acetyl))D] (H-KKK[hCys]IPRGDNFR[Dab]D-OH; linker 4-13 via X2)	> 7.30	–	A (The residual rate of the cyclic peptide is 70% or more.)	–
CC[C@H](C)[C@@H]1NC(=O)[C@@H](NC(=O)[C@H](C)NC(=O)[C@H](CCCCN)NC(=O)[C@H](CCCCN)NC(=O)[C@@H](N)CCCCN)CCSCC(=O)NCC[C@@H](C(=O)NCC(=O)O)NC(=O)[C@H](C)NC(=O)[C@H](Cc2ccccc2)NC(=O)[C@H]([C@@H](C)O)NC(=O)[C@H](CC(=O)O)NC(=O)CNC(=O)[C@H](CCCNC(=N)N)NC(=O)[C@@H]2CCCN2C1=O [Cyclic peptide 85, KKKA-(Hcy)-IPRGDTFA(Dab(acetyl))G] (H-KKKA[hCys]IPRGDTFA[Dab]G-OH; linker 5-14 via X2)	> 7.30	–	A (The residual rate of the cyclic peptide is 70% or more.)	–
CC[C@H](C)[C@@H]1NC(=O)[C@@H](NC(=O)[C@H](C)NC(=O)[C@H](CCCCN)NC(=O)[C@H](CCCCN)NC(=O)[C@@H](N)CCCCN)CCSCC(=O)NCC[C@@H](C(=O)N[C@@H](C)C(=O)O)NC(=O)[C@H](CO)NC(=O)[C@H](Cc2ccccc2)NC(=O)[C@H]([C@@H](C)O)NC(=O)[C@H](CC(=O)O)NC(=O)CNC(=O)[C@H](CCCNC(=N)N)NC(=O)[C@@H]2CCCN2C1=O [Cyclic peptide 83, KKKA-(Hcy)-IPRGDTFS(Dab(acetyl))A] (H-KKKA[hCys]IPRGDTFS[Dab]A-OH; linker 5-14 via X2)	> 7.30	–	A (The residual rate of the cyclic peptide is 70% or more.)	–
CC[C@H](C)[C@@H]1NC(=O)[C@@H](NC(=O)[C@H](C)NC(=O)[C@H](CCCCN)NC(=O)[C@H](CCCCN)NC(=O)[C@@H](N)CCCCN)CCSCC(=O)NCC[C@@H](C(=O)N[C@@H](C)C(=O)O)NC(=O)[C@H](CCCNC(=N)N)NC(=O)[C@H](Cc2ccc(O)cc2)NC(=O)[C@H]([C@@H](C)O)NC(=O)[C@H](CC(=O)O)NC(=O)CNC(=O)[C@H](CCCNC(=N)N)NC(=O)[C@@H]2CCCN2C1=O [Cyclic peptide 81, KKKA-(Hcy)-IPRGDTYR(Dab(acetyl))A] (H-KKKA[hCys]IPRGDTYR[Dab]A-OH; linker 5-14 via X2)	7.00 to 7.30	–	A (The residual rate of the cyclic peptide is 70% or more.)	–

Further lines, with some results ahead:

pKd (human integrin αvβ5; [2])	pKd (human integrin αvβ5; [3])	Compound	Performance evaluation: Stability (residual rate of cyclic peptide after alkali treatment) [1]	Stability (molecule stability, residual rate of the cyclic peptide rank) [1]
–	> 7.30	CC(C)[C@@H]1NC(=O)[C@@H](NC(=O)[C@H](C)NC(=O)[C@H](CCCCN)NC(=O)[C@H](CCCCN)NC(=O)[C@@H](N)CCCCN)CCSCC(=O)NCC[C@@H](C(=O)O)NC(=O)[C@H](C)NC(=O)[C@H](Cc2ccccc2)NC(=O)[C@H]([C@@H](C)O)NC(=O)[C@H](CC(=O)O)NC(=O)CNC(=O)[C@H](CCCNC(=N)N)NC(=O)[C@@H]2CCCN2C1=O [Cyclic peptide 164, KKKA-(Hcy)-VPRGDTFA(Dab(acetyl))] (H-KKKA[hCys]VPRGDTFA[Dab]-OH; linker 5-14 via X2)	–	A (The residual rate of the cyclic peptide is 70% or more.)
–	> 7.30	CC[C@H](C)[C@@H]1NC(=O)[C@@H](NC(=O)[C@H](C)NC(=O)[C@H](CCCCN)NC(=O)[C@H](CCCCN)NC(=O)[C@@H](N)CCCCN)CCSCC(=O)NCC[C@@H](C(=O)O)NC(=O)[C@H](C)NC(=O)[C@H](Cc2ccccc2)NC(=O)[C@H](CO)NC(=O)[C@H](CC(=O)O)NC(=O)CNC(=O)[C@H](CCCNC(=N)N)NC(=O)[C@@H]2CCCN2C1=O [Cyclic peptide 162, KKKA-(Hcy)-IPRGDSFA(Dab(acetyl))] (H-KKKA[hCys]IPRGDSFA[Dab]-OH; linker 5-14 via X2)	–	A (The residual rate of the cyclic peptide is 70% or more.)
–	7.00 to 7.30	CC[C@H](C)[C@@H]1NC(=O)[C@@H](NC(=O)CNC(=O)[C@H](CCCCN)NC(=O)[C@H](CCCCN)NC(=O)[C@@H](N)CCCCN)CCNC(=O)CSC[C@@H](C(=O)N[C@@H](C)C(=O)O)NC(=O)[C@H](CCCNC(=N)N)NC(=O)[C@H](Cc2ccccc2)NC(=O)[C@H]([C@@H](C)O)NC(=O)[C@H](CC(=O)O)NC(=O)CNC(=O)[C@H](CCCNC(=N)N)NC(=O)[C@@H]2CCCN2C1=O [Cyclic peptide 138, KKKG(Dab(acetyl))IPRGDTFR(C)A] (H-KKKG[Dab]IPRGDTFRCA-OH; linker 5-14 via X1)	–	C (The residual rate of the cyclic peptide is 30% or more and less than 50%.)
–	> 7.30	C[C@H](NC(=O)[C@@H]1CCNC(=O)CSCC[C@H](NC(=O)[C@H](CCCCN)NC(=O)[C@H](CCCCN)NC(=O)[C@@H](N)CCCCN)C(=O)N[C@@H]([C@@H](C)O)C(=O)N2CCC[C@H]2C(=O)N[C@@H](CCCNC(=N)N)C(=O)NCC(=O)N[C@@H](CC(=O)O)C(=O)N[C@@H]([C@@H](C)O)C(=O)N[C@@H](Cc2ccccc2)C(=O)N[C@@H](C)C(=O)N1)C(=O)O [Cyclic peptide 159, KKK-(Hcy)-TPRGDTFA(Dab(acetyl))A] (H-KKK[hCys]TPRGDTFA[Dab]A-OH; linker 4-13 via X2)	–	A (The residual rate of the cyclic peptide is 70% or more.)
> 7.30	–	CC[C@H](C)[C@@H]1NC(=O)[C@@H](NC(=O)[C@H](C)NC(=O)[C@H](CCCCN)NC(=O)[C@H](CCCCN)NC(=O)[C@@H](N)CCCCN)CCSCC(=O)NCC[C@@H](C(=O)NCC(=O)O)NC(=O)[C@H](C)NC(=O)[C@H](Cc2ccccc2)NC(=O)[C@H](CO)NC(=O)[C@H](CC(=O)O)NC(=O)CNC(=O)[C@H](CCCNC(=N)N)NC(=O)[C@@H]2CCCN2C1=O [Cyclic peptide 93, KKKA-(Hcy)-IPRGDSFA(Dab(acetyl))G] (H-KKKA[hCys]IPRGDSFA[Dab]G-OH; linker 5-14 via X2)	A (The residual rate of the cyclic peptide is 70% or more.)	–
